Measured values: publication PMC3835915, “Diversification of Fungal Specific Class A Glutathione Transferases in Saprotrophic Fungi” (PLoS ONE, 2013)
Where two headings read alike, the source gives them in different places.

How the values were obtained:
CcGSTFuA2461 = molecular target: T1, CcGSTFuA2461; test: inhibition of MUA esterase activity, fluorescence; type: biochemical, Coprinopsis cinerea; details: competitive vs MUA; no GSH; 30 mM Tris-HCl pH 8; 2 µM enzyme; read-out: PcGSTFuA1 / ANS
T1 construct: gene GSTFuA2461; full length, untagged, pET-3d, E. coli BL21(DE3) pSBET; primers encode N-term MAITFYDL, C-term TGSKL
Excerpt: inhibition of MUA esterase activity, fluorescence on CcGSTFuA2461

CcGSTFuA6800 = tested on: T2, CcGSTFuA6800; test: esterase activity, fluorescence; type: biochemical, Coprinopsis cinerea; details: no GSH
T2 construct: gene GSTFuA6800; full length, untagged, pET-3d, E. coli BL21(DE3) pSBET; primers encode N-term MAIILYDL, C-term YTTVV
Excerpt: esterase activity, fluorescence on CcGSTFuA6800

CcGSTFuA6801 [1] = molecular target: T3, CcGSTFuA6801; test: ANS displacement, fluorescence; type: binding, Coprinopsis cinerea; details: TE buffer pH 8.0; 3 µM enzyme; ANS probe; read-out: PcGSTFuA3 / ANS
T3 construct: gene GSTFuA6801; full length, untagged, pET-3d, E. coli BL21(DE3) pSBET; primers encode N-term MAITFYDI, C-term YHTVA
Excerpt: ANS displacement, fluorescence on CcGSTFuA6801

PcGSTFuA1 = molecular target: T4, PcGSTFuA1 (Phanerodontia chrysosporium, UniProt I6ZUH3); test: ANS displacement, fluorescence; type: binding
T4 construct: full length, untagged, pET-3d, E. coli BL21(DE3) pSBET; Ala inserted after Met1; dimer; primers encode N-term MAQPIVF, C-term EQVDV
Excerpt: ANS displacement, fluorescence on PcGSTFuA1

PcGSTFuA3 [2] = molecular target: T5, PcGSTFuA3; test: ANS displacement, fluorescence; type: binding, Phanerodontia chrysosporium; details: TE buffer pH 8.0; 3 µM enzyme; ANS probe at L-site overlapping G-site
T5 construct: gene GSTFuA3; full length, untagged, pET-3d, E. coli BL21(DE3) pSBET; Ala inserted after Met1; dimer; primers encode N-term MASLEPII, C-term EFVDV
Excerpt: ANS displacement, fluorescence on PcGSTFuA3

PcGSTFuA4 = molecular target: T6, PcGSTFuA4 (Phanerodontia chrysosporium, UniProt M1NR33); test: ANS displacement, fluorescence; type: binding; details: TE buffer pH 8.0; 3 µM enzyme; ANS probe at L-site overlapping G-site
T6 construct: full length, untagged, pET-3d, E. coli BL21(DE3) pSBET; primers encode N-term MADVITLY, C-term AHVDL
Excerpt: ANS displacement, fluorescence on PcGSTFuA4

CcGSTFuA6820 = molecular target: T7, CcGSTFuA6820; test: inhibition of MUA esterase activity, fluorescence; type: biochemical, Coprinopsis cinerea; details: non-competitive vs MUA; no GSH; 30 mM Tris-HCl pH 8; 2 µM enzyme; read-out: PcGSTFuA4 / ANS
T7 construct: gene GSTFuA6820; full length, untagged, pET-3d, E. coli BL21(DE3) pSBET; primers encode N-term MAITLYDS, C-term YQAVH
Excerpt: inhibition of MUA esterase activity, fluorescence on CcGSTFuA6820

PcGSTFuA2 [3] = tested on: T8, PcGSTFuA2; test: esterase activity, fluorescence; type: biochemical, Phanerodontia chrysosporium; details: no GSH; 30 mM Tris-HCl pH 8
T8 construct: gene GSTFuA2; full length, untagged, pET-3d, E. coli BL21(DE3) pSBET; Ala inserted after Met1; dimer; primers encode N-term MASQPIVF, C-term ERADD
Excerpt: esterase activity, fluorescence on PcGSTFuA2

PcGSTFuA2 [4] = molecular target: T8, PcGSTFuA2; test: ANS displacement, fluorescence; type: binding, Phanerodontia chrysosporium; details: TE buffer pH 8.0; 3 µM enzyme; ANS probe at L-site overlapping G-site
Excerpt: ANS displacement, fluorescence on PcGSTFuA2

PcGSTFuA3 [5] = tested on: T5, PcGSTFuA3; test: GSH conjugation, absorbance […] nm; type: biochemical, Phanerodontia chrysosporium; details: 5 mM GSH; pH 6.5; 2% acetonitrile
CcGSTFuA6801 [6] = tested on: T3, CcGSTFuA6801; test: GSH conjugation, absorbance […] nm; type: biochemical, Coprinopsis cinerea; details: 5 mM GSH; pH 6.5; 2% acetonitrile

T6 sequence (M1NR33 entry or part of it): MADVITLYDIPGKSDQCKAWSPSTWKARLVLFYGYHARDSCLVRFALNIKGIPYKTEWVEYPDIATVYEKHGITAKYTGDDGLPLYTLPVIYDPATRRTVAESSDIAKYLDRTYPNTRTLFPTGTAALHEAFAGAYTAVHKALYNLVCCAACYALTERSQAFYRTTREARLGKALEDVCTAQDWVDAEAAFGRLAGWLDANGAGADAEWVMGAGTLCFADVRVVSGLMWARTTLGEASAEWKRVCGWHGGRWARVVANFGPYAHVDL
T4 sequence (I6ZUH3 entry or part of it): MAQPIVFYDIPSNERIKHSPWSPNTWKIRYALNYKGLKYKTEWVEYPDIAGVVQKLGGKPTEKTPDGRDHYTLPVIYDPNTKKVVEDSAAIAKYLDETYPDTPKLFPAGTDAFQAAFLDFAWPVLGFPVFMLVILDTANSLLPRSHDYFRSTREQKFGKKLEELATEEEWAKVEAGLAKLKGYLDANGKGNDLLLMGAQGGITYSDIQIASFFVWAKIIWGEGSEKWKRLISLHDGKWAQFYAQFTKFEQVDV

In the case of `O=C(O)c1ccc(Cl)c([N+](=O)[O-])c1` [4-chloro-3-nitrobenzoic acid], the Ki (CcGSTFuA2461) is reported as 287 ± 29.7 µM.
`CC(=O)Oc1ccc2c(c1)Oc1cc(OC(C)=O)ccc1C21OC(=O)c2cc(CCl)ccc21` [CMFDA] gave a Km (CcGSTFuA6800; 50 mM phosphate pH 8.0, read-out: CcGSTFuA6800) of 0.153 ± 0.023 µM.
`COc1cc(/C=C/C=O)ccc1O` [Coniferaldehyde] gave an IC50 (CcGSTFuA6801 [1]) of 327 ± 50.6 µM, an IC50 (PcGSTFuA1) of 62.3 ± 1.2 µM and an IC50 (PcGSTFuA3 [2]) of 68.4 ± 25.3 µM. The IC50 (PcGSTFuA4) was 147 ± 5.1 µM.
Compound `O=C(O)c1cc(O)c(O)c(O)c1` [Gallic acid] has a Ki (CcGSTFuA2461) of 114 ± 8.9 µM and a Ki (CcGSTFuA6820) of 566 ± 16.5 µM.
`CC(=O)Oc1ccc2c(C)cc(=O)oc2c1` [MUA] gave a Km (PcGSTFuA2 [3]) of 23.5 ± 6.2 µM and a Km (CcGSTFuA6800; 30 mM Tris-HCl pH 8, read-out: PcGSTFUA2) of 25.4 ± 4.37 µM.
`COc1cc(C=O)cc(OC)c1O` [Syringaldehyde] was tested, and the IC50 (CcGSTFuA6801 [1]) was 276 ± 97.8 µM, the Ki (CcGSTFuA6820) was 594 ± 37.6 µM and the IC50 (PcGSTFuA2 [4]) was 89.3 ± 2.8 µM. For the same compound, the IC50 (PcGSTFuA1) was 62.5 ± 1.6 µM, the IC50 (PcGSTFuA3 [2]) was 37.2 ± 3.8 µM and the IC50 (PcGSTFuA4) was 199 ± 25.2 µM.
`COc1cc(C=O)ccc1O` [Vanillin] was tested, and the IC50 (PcGSTFuA2 [4]) was 84.7 ± 5.2 µM.
With `S=C=NCCc1ccccc1` [phenethyl-ITC] the Km (PcGSTFuA3 [5]) was 53.2 ± 5.37 µM and the Km (CcGSTFuA6801 [6]) was 41.6 ± 3.73 µM.
